pIC50: −log10 of the molar value. Where two headings read alike, the source gives them in different places.
Legend:
[1] = target: T1, recombinant human (rh) PDE5A (Homo sapiens, UniProt O76074); assay: Phosphodiesterase-5 activity assay (radiometric SPA); format: biochemical; settings: rhPDE5A1, 0.5 μM cGMP, 20 min at 37° C.
T1 construct: GST; purchased SIGMA E9034

[2] = Human plasma protein binding; format: in vitro ADME; settings: for fraction unbound: human
Method: An aliquot of 200 μL of human plasma containing test compound was spiked into donor well (red chamber) of the insert. 350 μL of PBS was spiked into receiver well (white chamber) of the insert.
The samples were matrix equilibrated with opposite matrix (25 μL of plasma/buffer sample was matched with 25 μL of blank buffer/plasma). Matrix matched samples were precipitated with 200 μL of acetonitrile containing internal standard. Samples were vortexed at 1000 rpm for 5 min and centrifuged at 4000 rpm for 10 min. Supernatant was separated, diluted 2 fold with water and analysed in LC-MS/MS. (Table 2).

[3] = read-out: % Bound in human plasma (converted)
[4] = read-out: % Unbound in human plasma

pIC50 [1]	Compound	other results
8.92	CCCc1nn(C)c2c(=O)[nH]c(-c3cc(S(=O)(=O)N4CCC([C@H](O)CO[N+](=O)[O-])CC4)ccc3OCC)nc12 [Compound 1d, (S)-2-(1-((4-ethoxy-3-(1-methyl-7-oxo-3-propyl-6,7-dihydro-1H-pyrazolo[4,3-d]pyrimidin-5-yl)phenyl)sulfonyl)piperidin-4-yl)-2-hydroxyethyl nitrate]	
8.07	CCCc1nn(C)c2c(=O)[nH]c(-c3cc(S(=O)(=O)N4CCC(C(O)C(CO)CO)CC4)ccc3OCC)nc12 (centres unmarked) [Compound 22, 5-(5-((4-(1,3-dihydroxy-2-(hydroxymethyl)propyl)piperidin-1-yl)sulfonyl)-2-ethoxyphenyl)-1-methyl-3-propyl-1,6-dihydro-7H-pyrazolo[4,3-d]pyrimidin-7-one]	fraction unbound [2, 3]: 0.036; fraction unbound [2, 4]: 0.036
9.16	CCCc1nn(C)c2c(=O)[nH]c(-c3cc(S(=O)(=O)N4CCC(C(CO)O[N+](=O)[O-])CC4)ccc3OCC)nc12 (single isomer, unassigned) [Compound 1l, 1-(1-((4-ethoxy-3-(1-methyl-7-oxo-3-propyl-6,7-dihydro-1H-pyrazolo[4,3-d]pyrimidin-5-yl)phenyl)sulfonyl)piperidin-4-yl)-2-hydroxyethyl nitrate]	
8.36	CCCc1nn(C)c2c(=O)[nH]c(-c3cc(S(=O)(=O)N4CCC(C(O)CCO)CC4)ccc3OCC)nc12 (single isomer, unassigned) [Compound 14-1, 5-(5-((4-(1,3-dihydroxypropyl)piperidin-1-yl)sulfonyl)-2-ethoxyphenyl)-1-methyl-3-propyl-1,6-dihydro-7H-pyrazolo[4,3-d]pyrimidin-7-one]	
9.59	CCCc1nc(C)c2c(=O)[nH]c(-c3cc(S(=O)(=O)N4CCC(C(CO)O[N+](=O)[O-])CC4)ccc3OCC)nn12 (single isomer, unassigned) [Compound 2k, 1-(1-((4-ethoxy-3-(5-methyl-4-oxo-7-propyl-3,4-dihydroimidazo[5,1-f][1,2,4]triazin-2-yl)phenyl)sulfonyl)piperidin-4-yl)-2-hydroxyethyl nitrate]	
8.80	CCCc1nn(C)c2c(=O)[nH]c(-c3cc(S(=O)(=O)N4CCC([C@H](O)CO)CC4)ccc3OCC)nc12 [Compound 6, (S)-5-(5-((4-(1,2-dihydroxyethyl)piperidin-1-yl)sulfonyl)-2-ethoxyphenyl)-1-methyl-3-propyl-1,6-dihydro-7H-pyrazolo[4,3-d]pyrimidin-7-one]	
8.70	CCCc1nn(C)c2c(=O)[nH]c(-c3cc(S(=O)(=O)N4CCC(C(O)(CCO)CCO)CC4)ccc3OCC)nc12 [Compound 15, 5-(2-ethoxy-5-((4-(1,3,5-trihydroxypentan-3-yl)piperidin-1-yl)sulfonyl)phenyl)-1-methyl-3-propyl-1,6-dihydro-7H-pyrazolo[4,3-d]pyrimidin-7-one]	
8.32	CCCc1nn(C)c2c(=O)[nH]c(-c3cc(S(=O)(=O)N4CCC(C(O)(CCO)CCO[N+](=O)[O-])CC4)ccc3OCC)nc12 (centres unmarked) [Compound 1g, 3-(1-((4-ethoxy-3-(1-methyl-7-oxo-3-propyl-6,7-dihydro-1H-pyrazolo[4,3-d]pyrimidin-5-yl)phenyl)sulfonyl)piperidin-4-yl)-3,5-dihydroxypentyl nitrate]	
9.40	CCCc1nc(C)c2c(=O)[nH]c(-c3cc(S(=O)(=O)N4CCC(C(O)CCO)CC4)ccc3OCC)nn12 (racemic) [Compound 27, 2-(5-((4-(1,3-dihydroxypropyl)piperidin-1-yl)sulfonyl)-2-ethoxyphenyl)-5-methyl-7-propylimidazo[5,1-f][1,2,4]triazin-4(3H)-one]	
9.77	CCCc1nc(C)c2c(=O)[nH]c(-c3cc(S(=O)(=O)N4CCC(C(CO)O[N+](=O)[O-])CC4)ccc3OCC)nn12 (single isomer, unassigned) [Compound 2l, 1-(1-((4-ethoxy-3-(5-methyl-4-oxo-7-propyl-3,4-dihydroimidazo[5,1-f][1,2,4]triazin-2-yl)phenyl)sulfonyl)piperidin-4-yl)-2-hydroxyethyl nitrate]	
9.52	CCCc1nc(C)c2c(=O)[nH]c(-c3cc(S(=O)(=O)N4CCC(C(O)CCO[N+](=O)[O-])CC4)ccc3OCC)nn12 (single isomer, unassigned) [Compound 2f, 3-(1-((4-ethoxy-3-(5-methyl-4-oxo-7-propyl-3,4-dihydroimidazo[5,1-f][1,2,4]triazin-2-yl)phenyl)sulfonyl)piperidin-4-yl)-3-hydroxypropyl nitrate]	
9.26	CCCc1nn(C)c2c(=O)[nH]c(-c3cc(S(=O)(=O)N4CCC(C(CO)O[N+](=O)[O-])CC4)ccc3OCC)nc12 (single isomer, unassigned) [Compound 1k, 1-(1-((4-ethoxy-3-(1-methyl-7-oxo-3-propyl-6,7-dihydro-1H-pyrazolo[4,3-d]pyrimidin-5-yl)phenyl)sulfonyl)piperidin-4-yl)-2-hydroxyethyl nitrate]	
	CCCc1nn(C)c2c(=O)[nH]c(-c3cc(S(=O)(=O)N4CCN(C)CC4)ccc3OCC)nc12 [Sildenafil, 5-(2-ethoxy-5-((4-methylpiperazin-1-yl)sulfonyl)phenyl)-1-methyl-3-propyl-1,6-dihydro-7H-pyrazolo[4,3-d]pyrimidin-7-one, reference compound]	fraction unbound [2, 3]: 0.0421; fraction unbound [2, 4]: 0.0419
8.34	CCCc1nn(C)c2c(=O)[nH]c(-c3cc(S(=O)(=O)N4CCC(C(O)CCO[N+](=O)[O-])CC4)ccc3OCC)nc12 (single isomer, unassigned) [Compound 1e, 3-(1-((4-ethoxy-3-(1-methyl-7-oxo-3-propyl-6,7-dihydro-1H-pyrazolo[4,3-d]pyrimidin-5-yl)phenyl)sulfonyl)piperidin-4-yl)-3-hydroxypropyl nitrate]	
9.70	CCCc1nc(C)c2c(=O)[nH]c(-c3cc(S(=O)(=O)N4CCC(C(O)CCO[N+](=O)[O-])CC4)ccc3OCC)nn12 (single isomer, unassigned) [Compound 2e, 3-(1-((4-ethoxy-3-(5-methyl-4-oxo-7-propyl-3,4-dihydroimidazo[5,1-f][1,2,4]triazin-2-yl)phenyl)sulfonyl)piperidin-4-yl)-3-hydroxypropyl nitrate]	
10.15	CCCc1nc(C)c2c(=O)[nH]c(-c3cc(S(=O)(=O)N4CCC([C@H](O)CO)CC4)ccc3OCC)nn12 [Compound 26, (S)-2-(5-((4-(1,2-dihydroxyethyl)piperidin-1-yl)sulfonyl)-2-ethoxyphenyl)-5-methyl-7-propyl imidazo[5,1-f][1,2,4]triazin-4(3H)-one]	
9.43	CCCc1nc(C)c2c(=O)[nH]c(-c3cc(S(=O)(=O)N4CCC(C(O)C(CO)CO)CC4)ccc3OCC)nn12 (centres unmarked) [Compound 29, 2-(5-((4-(1,3-dihydroxy-2-(hydroxymethyl)propyl)piperidin-1-yl)sulfonyl)-2-ethoxyphenyl)-5-methyl-7-propylimidazo[5,1-f][1,2,4]triazin-4(3H)-one]	
8.42	CCCc1nn(C)c2c(=O)[nH]c(-c3cc(S(=O)(=O)N4CCC(C(O)CCO[N+](=O)[O-])CC4)ccc3OCC)nc12 (single isomer, unassigned) [Compound 1f, 3-(1-((4-ethoxy-3-(1-methyl-7-oxo-3-propyl-6,7-dihydro-1H-pyrazolo[4,3-d]pyrimidin-5-yl)phenyl)sulfonyl)piperidin-4-yl)-3-hydroxypropyl nitrate]	
8.41	CCCc1nn(C)c2c(=O)[nH]c(-c3cc(S(=O)(=O)N4CCC(C(O)CCO)CC4)ccc3OCC)nc12 (single isomer, unassigned) [Compound 14-2, 5-(5-((4-(1,3-dihydroxypropyl)piperidin-1-yl)sulfonyl)-2-ethoxyphenyl)-1-methyl-3-propyl-1,6-dihydro-7H-pyrazolo[4,3-d]pyrimidin-7-one]	

Compound	pIC50 [1]	other results
4-ethoxy-3-(5-methyl-4-oxo-7-propyl-3,4-dihydroimidazo[5,1-f][1,2,4]triazin-2-yl)benzenesulfonyl chloride [Compound 24]	9.40	
CCCc1nn(C)c2c(=O)[nH]c(-c3cc(S(=O)(=O)N4CCC(C(O)C(CO[N+](=O)[O-])CO[N+](=O)[O-])CC4)ccc3OCC)nc12 (racemic) [Compound 1i, 2-((1-((4-ethoxy-3-(1-methyl-7-oxo-3-propyl-6,7-dihydro-1H-pyrazolo[4,3-d]pyrimidin-5-yl)phenyl)sulfonyl)piperidin-4-yl)(hydroxy)methyl)propane-1,3-diyl dinitrate]	8.38	% Bound in human plasma [2]: 99.85%; fraction unbound [2, 4]: 0.0015
CCCc1nc(C)c2c(=O)[nH]c(-c3cc(S(=O)(=O)N4CCC([C@@H](CO[N+](=O)[O-])O[N+](=O)[O-])CC4)ccc3OCC)nn12 [Compound 2b, (S)-1-(1-((4-ethoxy-3-(5-methyl-4-oxo-7-propyl-3,4-dihydroimidazo[5,1-f][1,2,4]triazin-2-yl)phenyl)sulfonyl)piperidin-4-yl)ethane-1,2-diyl dinitrate]	9.55	
CCCc1nn(C)c2c(=O)[nH]c(-c3cc(S(=O)(=O)N4CCC([C@@H](CO[N+](=O)[O-])O[N+](=O)[O-])CC4)ccc3OCC)nc12 [Compound 1b, (S)-1-(1-((4-ethoxy-3-(1-methyl-7-oxo-3-propyl-6,7-dihydro-1H-pyrazolo[4,3-d]pyrimidin-5-yl)phenyl)sulfonyl)piperidin-4-yl)ethane-1,2-diyl dinitrate]	8.31	
CCCc1nn(C)c2c(=O)[nH]c(-c3cc(S(=O)(=O)N4CCC(C(O)(CCO[N+](=O)[O-])CCO[N+](=O)[O-])CC4)ccc3OCC)nc12 [Compound 1h, 3-(1-((4-ethoxy-3-(1-methyl-7-oxo-3-propyl-6,7-dihydro-1H-pyrazolo[4,3-d]pyrimidin-5-yl)phenyl)sulfonyl)piperidin-4-yl)-3-hydroxypentane-1,5-diyl dinitrate]	8.33	

Reference: patent US12502393B2, “Dual mode of action soluble guanylate cyclase activators and phosphodiesterase inhibitors and uses thereof” (TOPADUR PHARMA AG, priority 2018, dated 2025)
